Test results as given in the supplement of paper PMC10307832.

Experiments:
Test in all cases: relative viability (nuclei count vs DMSO), 5 days (fraction); higher = more cells survive
[1] = compound: COc1cc(Nc2c(C#N)cnc3cc(OCCCN4CCN(C)CC4)c(OC)cc23)c(Cl)cc1Cl [Bosutinib] + CC(=O)c1c(C)c2cnc(Nc3ccc(N4CCNCC4)cn3)nc2n(C2CCCC2)c1=O [Palbociclib] (partner 0.5 µM)
Outline: (§1)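 Lung cancer cell lines, seeded in 1536-well plates, were treated the following day by pin tool with a single drug or with five library-drug doses (not always all listed) in √10 steps on top of a fixed anchor-drug dose. Cells were fixed and nuclei stained in one step after 5 days, and nuclei were counted. Relative viability is the nuclei count for treated wells divided by that for vehicle wells, reported as medians of duplicate plates.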

[2] = compound: COc1cc(Nc2c(C#N)cnc3cc(OCCCN4CCN(C)CC4)c(OC)cc23)c(Cl)cc1Cl [Bosutinib] + CC(C)C[C@H](NC(=O)[C@H](Cc1ccccc1)NC(=O)c1cnccn1)B(O)O [Bortezomib] (partner 0.002 µM)
Outline: as §1

[3] = compound: COc1cc(Nc2c(C#N)cnc3cc(OCCCN4CCN(C)CC4)c(OC)cc23)c(Cl)cc1Cl [Bosutinib] + CS(=O)(=O)CCNCc1ccc(-c2ccc3ncnc(Nc4ccc(OCc5cccc(F)c5)c(Cl)c4)c3c2)o1 [Lapatinib] (partner 2 µM)
Outline: as §1

[4] = compound: COc1cc(Nc2c(C#N)cnc3cc(OCCCN4CCN(C)CC4)c(OC)cc23)c(Cl)cc1Cl [Bosutinib] + CS(=O)(=O)N1CCN(Cc2cc3nc(-c4cccc5[nH]ncc45)nc(N4CCOCC4)c3s2)CC1 [Pictilisib] (partner 1 µM)
Outline: as §1

[5] = compound: COc1cc(Nc2c(C#N)cnc3cc(OCCCN4CCN(C)CC4)c(OC)cc23)c(Cl)cc1Cl [Bosutinib] + Nc1nc2[nH]cc(CCc3ccc(C(=O)N[C@@H](CCC(=O)O)C(=O)O)cc3)c2c(=O)[nH]1 [Pemetrexed] (partner 0.2 µM)
Outline: as §1

Row | Cell Line | relative viability ([1]; first compound 0.01 µM) | relative viability ([1]; first compound 0.03162 µM) | relative viability ([1]; first compound 0.1 µM) | relative viability ([1]; first compound 1 µM) | relative viability ([2]; first compound 0.01 µM) | relative viability ([2]; first compound 0.03162 µM) | relative viability ([2]; first compound 0.1 µM) | relative viability ([2]; first compound 1 µM) | relative viability ([3]; first compound 0.01 µM) | relative viability ([3]; first compound 0.03162 µM) | relative viability ([3]; first compound 0.1 µM) | relative viability ([3]; first compound 1 µM) | relative viability ([4]; first compound 0.01 µM) | relative viability ([4]; first compound 0.03162 µM) | relative viability ([4]; first compound 0.1 µM) | relative viability ([4]; first compound 1 µM) | relative viability ([5]; first compound 0.01 µM) | relative viability ([5]; first compound 0.03162 µM) | relative viability ([5]; first compound 0.1 µM) | relative viability ([5]; first compound 1 µM)
1 | 201T | 0.355 | 0.345 | 0.35 | 0.338 | 1.16 | 1.05 | 1.14 | 1.05 | 1.03 | 1.05 | 1.01 | 0.96 | 0.685 | 0.653 | 0.66 | 0.615 | 0.283 | 0.302 | 0.324 | 0.369
2 | A549 |  |  |  |  |  |  |  |  | 0.949 | 1.05 | 1.06 | 1.03 | 0.442 | 0.447 | 0.494 | 0.513 |  |  |  | 
3 | A-427 | 0.585 | 0.496 | 0.504 | 0.523 | 0.958 | 1.04 | 1.08 | 0.958 | 1.02 | 0.972 | 1 | 1.03 | 0.724 | 0.801 | 0.874 | 0.736 | 1.01 | 1.07 | 1.02 | 1.01
4 | ABC-1 | 0.864 | 0.72 | 0.759 | 0.612 | 0.331 | 0.338 | 0.312 | 0.33 | 1.26 | 1.2 | 1.05 | 0.786 | 0.836 | 0.85 | 0.841 | 0.596 |  |  |  | 
5 | BEN | 0.449 | 0.444 | 0.493 | 0.447 | 0.726 | 0.986 | 0.923 | 0.765 | 0.619 | 0.699 | 0.785 | 0.52 | 0.548 | 0.706 | 0.664 | 0.429 | 0.641 | 0.772 | 0.746 | 0.576
6 | CAL-12T | 0.488 | 0.493 | 0.396 | 0.117 | 0.888 | 1.15 | 1.18 | 1.01 | 0.755 | 0.706 | 0.82 | 0.551 | 0.31 | 0.496 | 0.46 | 0.409 | 1.09 | 1.26 | 1.29 | 1.18
7 | COR-L23 | 0.275 | 0.366 | 0.22 | 0.322 | 1.07 | 1.03 | 1.01 | 1.01 | 1.01 | 0.892 | 1.04 | 1.08 | 0.893 | 0.826 | 0.813 | 0.81 | 0.2 | 0.205 | 0.224 | 0.218
8 | COR-L 105 | 0.401 | 0.385 | 0.443 | 0.412 | 0.778 | 0.9 | 0.705 | 0.446 | 0.384 | 0.403 | 0.391 | 0.3 | 0.423 | 0.442 | 0.387 | 0.393 | 1.22 | 1.1 | 0.979 | 0.777
9 | ChaGo-K-1 | 0.918 | 0.939 | 0.972 | 0.881 | 0.922 | 1.12 | 1.12 | 1.37 |  |  |  |  | 0.544 | 1.05 | 1.06 | 1.14 | 0.244 | 0.26 | 0.249 | 0.265
10 | EKVX | 0.39 | 0.367 | 0.373 | 0.314 | 1.18 | 1.05 | 0.982 | 0.713 | 0.231 | 0.216 | 0.242 | 0.172 | 0.427 | 0.469 | 0.41 | 0.309 | 0.403 | 0.406 | 0.381 | 0.361
11 | EMC-BAC-2 | 0.519 | 0.5 | 0.508 | 0.533 | 1.03 | 0.943 | 1.07 | 1.06 | 0.878 | 0.835 | 0.86 | 0.873 | 0.576 | 0.507 | 0.52 | 0.506 | 0.426 | 0.444 | 0.446 | 0.448
12 | EPLC-272H | 0.282 | 0.305 | 0.313 | 0.317 | 0.76 | 0.817 | 0.911 | 0.9 | 1.19 | 0.931 | 1.02 | 1.04 | 0.375 | 0.293 | 0.36 | 0.426 | 0.324 | 0.382 | 0.323 | 0.319
13 | H3255 | 0.322 | 0.306 | 0.323 | 0.319 | 0.659 | 0.774 | 0.85 | 0.493 | 0.251 | 0.238 | 0.235 | 0.258 | 0.488 | 0.49 | 0.44 | 0.235 | 0.555 | 0.596 | 0.621 | 0.446
14 | HARA | 0.339 | 0.293 | 0.243 | 0.171 | 1.15 | 1.13 | 1.1 | 1.18 | 0.7 | 0.657 | 0.757 | 0.76 | 0.442 | 0.453 | 0.45 | 0.352 | 0.237 | 0.27 | 0.244 | 0.264
15 | HCC-15 | 0.763 | 0.71 | 0.699 | 0.63 | 1.05 | 1.06 | 1.08 | 0.915 | 0.901 | 0.858 | 0.829 | 0.812 | 0.799 | 0.829 | 0.725 | 0.773 | 0.227 | 0.244 | 0.226 | 0.221
16 | HCC-44 | 0.985 | 0.967 | 0.964 | 0.865 | 0.873 | 0.891 | 0.867 | 0.567 | 1.03 | 0.96 | 0.982 | 1.07 | 0.723 | 0.548 | 0.587 | 0.632 | 0.661 | 0.642 | 0.683 | 0.603
17 | HCC-78 | 0.457 | 0.425 | 0.506 | 0.435 | 0.551 | 0.486 | 0.428 | 0.429 | 0.468 | 0.798 | 0.817 | 0.7 | 0.2 | 0.196 | 0.269 | 0.301 | 0.893 | 0.916 | 0.936 | 0.859
